Patent US10703748B2, “Diazanaphthalen-3-yl carboxamides and preparation and use thereof” (Samumed, LLC, priority 2017, dated 2020)

How the values were obtained:
DYRK1A kinase = DYRK1A kinase (Homo sapiens, UniProt Q13627); assay: DYRK1A kinase activity (Ser/Thr 18 peptide Z-lyte FRET assay); format: biochemical; details: recombinant DYRK1A, 30 μM ATP, one hour at room temperature;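 note: kinase activity read as coumarin/fluorescein emission ratio after development step, with unphosphorylated and phosphorylated peptide forms setting 0% and 100% controls, values from dose-response curves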
[1] = system: SW480 colon carcinoma cells; assay: Cell viability assay (CellTiter-Glo); details: for inhibition at 10 µM: SW480, read-out: percent inhibition at 10 μM
GSK3β kinase = GSK3β kinase (Homo sapiens, UniProt P49841); assay: GSK3β kinase activity (Ser/Thr 09 peptide Z-lyte FRET assay); format: biochemical; details: recombinant kinase, 46 μM ATP, one hour at room temperature; read-out: EC50
IL-6 = IL-6 inhibition in LPS-stimulated human peripheral blood mononuclear cells (HTRF); details: for inhibition at 10 µM: read-out: percentage in parentheses after EC50 >10
[2] = system: α-smooth muscle actin (aSMA) positive LL29 cells; assay: Inhibition of the fibrotic process: αSMA staining in TGF-β1 treated LL29 fibroblasts from IPF patients; details: for inhibition at 10 µM: read-out: percentage in parentheses after EC50 >10
[3] = system: Wnt-responsive Sp5-Luc reporter in SW480 colon carcinoma cells; assay: Screening assay for Wnt activity (Sp5-Luc reporter gene assay); details: for inhibition at 10 µM: SW480, read-out: percent inhibition at 10 μM

Sequence of GSK3β kinase (P49841 whole entry): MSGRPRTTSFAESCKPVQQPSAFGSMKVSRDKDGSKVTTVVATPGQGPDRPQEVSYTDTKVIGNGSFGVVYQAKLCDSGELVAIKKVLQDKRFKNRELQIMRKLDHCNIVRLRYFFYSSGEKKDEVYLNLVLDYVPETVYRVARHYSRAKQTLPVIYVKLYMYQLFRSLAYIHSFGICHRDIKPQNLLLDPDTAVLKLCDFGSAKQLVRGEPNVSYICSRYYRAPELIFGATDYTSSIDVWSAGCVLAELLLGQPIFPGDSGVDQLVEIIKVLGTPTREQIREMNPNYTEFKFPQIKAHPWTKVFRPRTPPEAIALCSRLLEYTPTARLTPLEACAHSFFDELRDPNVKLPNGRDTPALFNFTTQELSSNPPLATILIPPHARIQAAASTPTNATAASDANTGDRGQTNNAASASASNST

Row | Compound | EC50 (DYRK1A kinase) | EC50 ([1]; Homo sapiens, SW480, 96 h) | EC50 (GSK3β kinase) | EC50 (IL-6; Homo sapiens, PBMC, 22 h) | EC50 ([2]; Homo sapiens, Fibroblast, 96 h) | EC50 ([3]; Homo sapiens, SW480) | inhibition at 10 µM (IL-6; Homo sapiens, PBMC) | inhibition at 10 µM ([3]; Homo sapiens) | EC50 ([1]; SW480 cells, four days, CellTiter-Glo) | percent inhibition at 10 μM ([1]; at 10 μM, given for EC50 of >10 μM, SW480 cell viability) | EC50 (IL-6; huPBMCs, LPS 50 ng/mL, 22 hours, curves starting from 10 μM) | percentage in parentheses after EC50 >10 (IL-6; huPBMCs, LPS, given beside >10 μM, meaning not given) | EC50 ([2]; LL29 fibroblasts from IPF patients, TGF-β1 20 ng/mL, 4 days, curves from 10 μM to 0.94 nM) | percentage in parentheses after EC50 >10 ([2]; LL29 fibroblasts, TGF-β1, given beside >10 μM, meaning not given) | EC50 ([3]; SW480 Sp5-Luc reporter cells, 36 to 48 hours) | inhibition at 10 µM ([1]; Homo sapiens) | inhibition at 10 µM ([2]; Homo sapiens, Fibroblast)
1 | Cn1cc(-c2ccc3cnc(NC(=O)c4coc(C5CCNCC5)n4)cc3n2)cn1 [Compound 241, N-(2-(1-Methyl-1H-pyrazol-4-yl)-1,6-naphthyridin-7-yl)-2-(piperidin-4-yl) oxazole-4-carboxamide] | 67 nM | 0.466 µM | 166 nM | 3.72 µM | 1.58 µM | 0.388 µM |  |  |  |  |  |  |  |  |  |  | 
2 | CN1CCC(c2nc(C(=O)Nc3cc4nc(-c5cnn(C)c5)ccc4cn3)co2)CC1 [Compound 242, N-(2-(1-Methyl-1H-pyrazol-4-yl)-1,6-naphthyridin-7-yl)-2-(1-methylpiperidin-4-yl)oxazole-4-carboxamide] | 60 nM | 0.541 µM | 6850 nM | 3.62 µM | 1.42 µM | 0.268 µM |  |  |  |  |  |  |  |  |  |  | 
3 | CCN(CC)CC(=O)Nc1cc2nc(-c3cnn(C)c3CN3CCCCC3)ccc2cn1 [Compound 283, 2-(Diethylamino)-N-(2-(1-methyl-5-(piperidin-1-ylmethyl)-1H-pyrazol-4-yl)-1,6-naphthyridin-7-yl)acetamide] | 698 nM | 4.24 µM | 1180 nM | > 10 µM | 3.91 µM | > 10 µM | 7.4% | 43.6% |  |  |  |  |  |  |  |  | 
4 | Cn1cc(-c2ccc3cnc(NC(=O)C(C)(C)F)cc3n2)nn1 [Compound 333] |  |  |  |  |  |  |  |  | > 10 µM | 35.6% | > 10 µM | 5.4% | > 10 µM | 25.2% | 0.504 µM |  | 
5 | Cn1cc(-c2ccc3cnc(NC(=O)C4CCN(CC5(C(F)(F)F)CC5)CC4)cc3n2)nn1 [Compound 347, N-(2-(1-Methyl-1H-1,2,3-triazol-4-yl)-1,6-naphthyridin-7-yl)-1-((1-(trifluoromethyl)cyclopropyl)methyl)piperidine-4-carboxamide] | 9990 nM | > 10 µM | > 10000 nM | > 10 µM | > 10 µM | > 10 µM | 4% | 28.7% |  |  |  |  |  |  |  | 10.7% | 20.7%
6 | CNC(=O)c1ccc(C(=O)Nc2cc3nc(-c4cn(C)nn4)ccc3cn2)cn1 [Compound 372, N^2-Methyl-N^5-(2-(1-methyl-1H-1,2,3-triazol-4-yl)-1,6-naphthyridin-7-yl) pyridine-2,5-dicarboxamide] | 67 nM | > 10 µM | 255 nM | > 10 µM | 3.64 µM | > 10 µM | 0% | 48.7% |  |  |  |  |  |  |  | 23.2% | 
7 | Cn1cncc1-c1ccc2cnc(NC(=O)C3CCC(F)(F)CC3)cc2n1 [Compound 400, 4,4-Difluoro-N-(2-(1-methyl-1H-imidazol-5-yl)-1,6-naphthyridin-7-yl) cyclohexane-1-carboxamide] | 121 nM | 2.37 µM | 36 nM | 3.66 µM | 1.48 µM | 1.35 µM |  |  |  |  |  |  |  |  |  |  | 
8 | Cn1cncc1-c1ccc2cnc(NC(=O)c3ccc(F)cc3)cc2n1 [Compound 448, 4-Fluoro-N-(2-(1-methyl-1H-imidazol-5-yl)-1,6-naphthyridin-7-yl)benzamide] | > 10000 nM | > 10 µM | > 10000 nM | 5.13 µM | > 10 µM | > 10 µM |  | 2.8% |  |  |  |  |  |  |  | 16.2% | 23%
9 | CN1CCC(Oc2cccc(C(=O)Nc3cc4nc(-c5cnco5)ccc4cn3)c2)CC1 [Compound 591, 3-((1-Methylpiperidin-4-yl)oxy)-N-(2-(oxazol-5-yl)-1,6-naphthyridin-7-yl)benzamide] | > 10000 nM | 3.25 µM | > 10000 nM | > 10 µM | > 10 µM | 6.06 µM | 0% |  |  |  |  |  |  |  |  |  | 13.3%
10 | Cc1ncc(-c2ccc3cnc(NC(=O)N4CCC(N(C)C)CC4)cc3n2)s1 [Compound 662, 4-(Dimethylamino)-N-(2-(2-methylthiazol-5-yl)-1,6-naphthyridin-7-yl) piperidine-1-carboxamide] | > 10000 nM | > 10 µM | > 10000 nM | > 10 µM | 7.65 µM | > 10 µM | 10.5% | 26% |  |  |  |  |  |  |  | 17.3% | 
11 | CN1CCC(C(=O)Nc2cc3nc(-c4cnsc4)ccc3cn2)CC1 [Compound 692, N-(2-(Isothiazol-4-yl)-1,6-naphthyridin-7-yl)-1-methylpiperidine-4-carboxamide] | 1010 nM | > 10 µM | > 10000 nM | 6.73 µM | > 10 µM | > 10 µM |  | 38.6% |  |  |  |  |  |  |  | 28.7% | 3.8%
12 | CC(C)Nc1cncc(-c2ccc3cnc(NC(=O)c4cn(C5CCNCC5)nn4)cc3n2)n1 [Compound 862, N-(2-(6-(isopropylamino)pyrazin-2-yl)-1,6-naphthyridin-7-yl)-1-(piperidin-4-yl)-1H-1,2,3-triazole-4-carboxamide] | 203 nM | 4.38 µM | > 10000 nM | > 10 µM | 5.03 µM | 3.97 µM | 5.6% |  |  |  |  |  |  |  |  |  | 
13 | CC(C)Nc1cncc(-c2ccc3cnc(NC(=O)c4cn(C5CCN(CCF)CC5)nn4)cc3n2)n1 [Compound 863, 1-(1-(2-fluoroethyl)piperidin-4-yl)-N-(2-(6-(isopropylamino)pyrazin-2-yl)-1,6-naphthyridin-7-yl)-1H-1,2,3-triazole-4-carboxamide] | 388 nM | > 10 µM | > 10000 nM | > 10 µM | > 10 µM | > 10 µM | 7% | 29.7% |  |  |  |  |  |  |  | 27.5% | 41%
14 | O=C(Nc1cc2nc(-c3cncc(OCC4CNC4)n3)ccc2cn1)c1ccc(F)cc1 [Compound 892, N-(2-(6-(Azetidin-3-ylmethoxy)pyrazin-2-yl)-1,6-naphthyridin-7-yl)-4-fluorobenzamide] | 142 nM | 2.06 µM | > 10000 nM | > 10 µM | 3.98 µM | 4.28 µM | 2.5% |  |  |  |  |  |  |  |  |  | 
15 | Cn1cc(-c2ccc3cnc(NC(=O)[C@H]4CCCN4)nc3c2)cn1 [Compound 969, (R)—N-(7-(1-Methyl-1H-pyrazol-4-yl)quinazolin-2-yl)pyrrolidine-2-carboxamide] | > 10000 nM | > 10 µM | > 10000 nM | > 10 µM | > 10 µM | > 10 µM | 4.1% | 4.2% |  |  |  |  |  |  |  | 16.3% | 40.2%
16 | CC(C(=O)Nc1ncc2ccc(-c3cnn(C)c3)cc2n1)N1CCCCC1 (stereo not drawn) [Compound 978, N-(7-(1-Methyl-1H-pyrazol-4-yl)quinazolin-2-yl)-2-(piperidin-1-yl)propanamide] | 171 nM | > 10 µM | 87 nM | > 10 µM | 2.73 µM | > 10 µM | 6.9% | 37.2% |  |  |  |  |  |  |  | 50% | 
17 | Cn1cc(-c2ccc3cnc(NC(=O)C4CCN(S(C)(=O)=O)CC4)nc3c2)cn1 [Compound 979, N-(7-(1-methyl-1H-pyrazol-4-yl)quinazolin-2-yl)-1-(methylsulfonyl)piperidine-4-carboxamide] | > 10000 nM | > 10 µM | > 10000 nM | > 10 µM | > 10 µM | > 10 µM | 6.4% | 20.3% |  |  |  |  |  |  |  | 16.7% | 23.2%
18 | CN1CCCN(CC(=O)Nc2ncc3ccc(-c4cnn(C)c4)cc3n2)CC1 [Compound 1013, 2-(4-Methyl-1,4-diazepan-1-yl)-N-(7-(1-methyl-1H-pyrazol-4-yl)quinazolin-2-yl)acetamide] | 75 nM | > 10 µM | 532 nM | > 10 µM | > 10 µM | > 10 µM | 3.1% | 0% |  |  |  |  |  |  |  | 10.5% | 12.4%
19 | CC(C)CN1CCC(CC(=O)Nc2ncc3ccc(-c4cnn(C)c4)cc3n2)C1 (stereo not drawn) [Compound 1029, 2-(1-Isobutylpyrrolidin-3-yl)-N-(7-(1-methyl-1H-pyrazol-4-yl)quinazolin-2-yl)acetamide] | 45 nM | > 10 µM | 238 nM | > 10 µM | > 10 µM | 2.91 µM | 3.2% |  |  |  |  |  |  |  |  | 38.5% | 28%
